Like-named read-outs stand apart in the source and are kept apart here.
Assays:
[1] = test system: alpha-2 adrenergic receptors; conditions: background statement; cited from earlier work
[2] = test system: alpha adrenergic receptors; conditions: background statement; cited from earlier work
[3] = target: T1, receptor sites of clonidine (rat cortex membranes) (Rattus norvegicus, UniProt P22909); test: Affinity for the receptor sites of clonidine (3H clonidine binding, rat cortex membranes)
T1 construct: measured on rat cortex membranes; from tissue; host or cells: rat cortex membranes
T1 sequence (P22909 1-465): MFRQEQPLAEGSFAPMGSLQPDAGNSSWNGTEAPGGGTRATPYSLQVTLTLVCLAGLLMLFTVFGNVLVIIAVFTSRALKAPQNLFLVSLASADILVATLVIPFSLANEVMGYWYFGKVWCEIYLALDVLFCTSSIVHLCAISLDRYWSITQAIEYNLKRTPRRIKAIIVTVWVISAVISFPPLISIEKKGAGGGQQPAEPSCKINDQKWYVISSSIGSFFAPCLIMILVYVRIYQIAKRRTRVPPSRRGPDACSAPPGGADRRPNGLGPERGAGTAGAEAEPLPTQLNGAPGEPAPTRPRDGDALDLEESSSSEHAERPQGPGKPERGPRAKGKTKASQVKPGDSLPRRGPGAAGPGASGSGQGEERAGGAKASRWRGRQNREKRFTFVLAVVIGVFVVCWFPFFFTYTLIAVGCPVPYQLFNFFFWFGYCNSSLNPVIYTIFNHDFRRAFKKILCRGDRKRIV

Compound | Ki [3] [nM] | further results
Clc1cccc(Cl)c1N=C1NCCN1 [Clonidine, clonidine] | – | affinity for alpha-2 receptors [1]: strong affinity; behaviour towards alpha adrenergic receptors [2]: behaves as an agonist towards alpha adrenergic receptors
CN1CCN(c2nc(N)c(Cl)c(Cl)n2)CC1 [Example 8, 2-N-methylpiperazino-4-amino-5,6-dichloropyrimidine] | 51 | –
CNc1nc(N2CCN(C)CC2)nc(Cl)c1Cl [Example 9, 2-N-methylpiperazino-4-methylamino-5,6-dichloro-pyrimidine] | 44 | –
CC(C)Nc1nc(N2CCN(C)CC2)nc(Cl)c1Cl [Example 10, 2-N-methylpiperazino-4-isopropylamino-5,6-dichloropyrimidine] | 5 | –
COc1c(Cl)nc(N2CCN(C)CC2)nc1NC(C)C [Example 12, 2-N-methylpiperazino-4-isopropylamino-5-methoxy-6-chloropyrimidine] | – | Ki ([3]; read-out: Ki): 51 nM
Cc1c(Cl)nc(N2CCN(C)CC2)nc1NC(C)C [Example 21, 2-N-methylpiperazino-4-isopropylamino-5-methyl-6-chloropyrimidine] | 16 | –
CCc1c(Cl)nc(N2CCN(C)CC2)nc1NC(C)C [Example 25, 2-N-methylpiperazino-4-isopropylamino-5-ethyl-6-chloropyrimidine] | – | Ki ([3]; read-out: Ki): 51 nM

— patent US4535080A, “Derivatives of 2-piperazino-pyrimidine, methods for their preparation and their utilization as drugs or intermediates for drugs” (Pharmuka Laboratoires, priority 1981, dated 1985)
